# ChEMBL document CHEMBL1221184, “Identifying off-target effects and hidden phenotypes of drugs in human cells” (Nat Chem Biol, 2006)
# Calls of active or inactive are those of the source. The rule behind the calls is not given here.
# Legend:
# PC-3 [1] = experiment: Antiproliferative activity against human PC3 cells at 500 nM after 120 hrs by MTT assay relative to DMSO; type: functional
# PC-3 [2] = experiment: Antiproliferative activity against human PC3 cells at 1 uM after 120 hrs by MTT assay relative to DMSO; type: functional
# PC-3 [3] = experiment: Antiproliferative activity against human PC3 cells at 2 uM after 120 hrs by MTT assay relative to DMSO; type: functional
# PC-3 [4] = experiment: Antiproliferative activity against human PC3 cells at 30 uM after 120 hrs by MTT assay relative to DMSO; type: functional
# PC-3 [5] = experiment: Antiproliferative activity against human PC3 cells at 5 uM after 120 hrs by MTT assay relative to DMSO; type: functional
# PC-3 [6] = experiment: Antiproliferative activity against human PC3 cells at 10 uM after 120 hrs by MTT assay relative to DMSO; type: functional
# PC-3 [7] = experiment: Antiproliferative activity against human PC3 cells at 25 uM after 120 hrs by MTT assay relative to DMSO; type: functional
# [8] = target: Transcription factor Jun (Homo sapiens) (UniProt P05412); experiment: Activation of c-Jun expressed in HEK293 cells assessed as induction of protein interaction with Pin1 by EYFP based reporter gene assay; type: cell-based
# Chain of Transcription factor Jun (Homo sapiens) (P05412 whole entry, the tested form may be a part): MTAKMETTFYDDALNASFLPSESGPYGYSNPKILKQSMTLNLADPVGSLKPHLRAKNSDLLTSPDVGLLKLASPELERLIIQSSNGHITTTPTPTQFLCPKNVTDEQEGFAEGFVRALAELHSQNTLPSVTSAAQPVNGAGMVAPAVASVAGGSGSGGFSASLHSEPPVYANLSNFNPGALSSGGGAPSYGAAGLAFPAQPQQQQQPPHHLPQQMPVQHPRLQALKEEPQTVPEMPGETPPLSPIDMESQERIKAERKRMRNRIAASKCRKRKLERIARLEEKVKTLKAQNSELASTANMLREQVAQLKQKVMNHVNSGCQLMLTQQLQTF
# [9] = target: Cyclin-dependent kinase 1 (Homo sapiens) (UniProt P06493); experiment: Effect on Cdc2 expressed in HEK293 cells assessed as effect on Cdc2:Cdc25C interaction complexes in presence of camptothecin by EYFP and/or YFP Venus fragment based reporter gene assay; type: cell-based
# Chain of Cyclin-dependent kinase 1 (Homo sapiens) (P06493 whole entry, looked up, the tested form may be a part): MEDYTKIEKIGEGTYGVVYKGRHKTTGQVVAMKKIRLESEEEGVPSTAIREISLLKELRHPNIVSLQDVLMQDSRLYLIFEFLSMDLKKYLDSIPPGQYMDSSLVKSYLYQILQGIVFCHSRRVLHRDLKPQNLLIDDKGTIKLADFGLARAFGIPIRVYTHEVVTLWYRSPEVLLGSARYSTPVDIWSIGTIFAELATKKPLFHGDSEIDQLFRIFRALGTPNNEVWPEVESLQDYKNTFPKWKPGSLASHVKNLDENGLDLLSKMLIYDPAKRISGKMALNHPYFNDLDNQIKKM
# [10] = target: Cyclin-dependent kinase 1 (Homo sapiens) (UniProt P06493); experiment: Effect on Cdc2 expressed in HEK293 cells assessed as effect on Cdc2:Cdc25A interaction complexes in presence of camptothecin by EYFP and/or YFP Venus fragment based reporter gene assay; type: cell-based
# [11] = target: Transcription factor Jun (Homo sapiens) (UniProt P05412); experiment: Inhibition of c-Jun expressed in HEK293 cells assessed as induction of protein interaction in presence of camptothecin with Pin1 by EYFP based reporter gene assay; type: cell-based
# Cofilin-1 (Homo sapiens) = Cofilin-1 (Homo sapiens) (UniProt P23528); experiment: Effect on cofilin1 expressed in HEK293 cells assessed as effect on cofilin1; Limk2 interaction complexes in presence of camptothecin by EYFP and/or YFP Venus fragment based reporter gene assay; type: cell-based
# Chain of Cofilin-1 (Homo sapiens) (P23528 whole entry, the tested form may be a part): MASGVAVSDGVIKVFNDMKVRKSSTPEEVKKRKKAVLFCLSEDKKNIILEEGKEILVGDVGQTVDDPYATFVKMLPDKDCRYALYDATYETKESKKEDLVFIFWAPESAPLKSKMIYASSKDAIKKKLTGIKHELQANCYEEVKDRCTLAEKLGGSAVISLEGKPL
# PC-3 [12] = experiment: Antiproliferative activity against human PC3 cells at 50 uM after 120 hrs by MTT assay relative to DMSO; type: functional
smiles,measurement,setting,value
C[C@]12CC[C@@H]3c4ccc(O)cc4C[C@@H](CCCCCCCCC[S+]([O-])CCCC(F)(F)C(F)(F)F)[C@H]3[C@@H]1CC[C@@H]2O (stereo partly specified) [FULVESTRANT],fold change (FC),PC-3 [1],1.068
CN1CC(=O)N2[C@H](c3ccc4c(c3)OCO4)c3[nH]c4ccccc4c3C[C@@H]2C1=O,fold change (FC),PC-3 [2],1.052
CC(C)(C)NCC(O)c1cc(Cl)c(N)c(Cl)c1 (stereo unspecified) [CLENBUTEROL],fold change (FC),PC-3 [3],0.963
CC(C)c1nc(N(C)S(C)(=O)=O)nc(-c2ccc(F)cc2)c1/C=C/[C@@H](O)C[C@@H](O)CC(=O)O [ROSUVASTATIN],fold change (FC),PC-3 [4],0.491
COCc1c(C(C)C)nc(C(C)C)c(/C=C/[C@@H](O)C[C@@H](O)CC(=O)O)c1-c1ccc(F)cc1 [CERIVASTATIN],fold change (FC),PC-3 [4],0.254
CC[C@H](CO)Nc1nc(NCc2ccccc2)c2ncn(C(C)C)c2n1 [SELICICLIB],fold change (FC),PC-3 [5],0.797
CC(C)(C)NCC(O)c1ccc(O)c(CO)c1 (stereo unspecified) [ALBUTEROL],fold change (FC),PC-3 [3],0.926
Cc1onc(-c2ccccc2)c1-c1ccc(S(N)(=O)=O)cc1 [VALDECOXIB],fold change (FC),PC-3 [6],1.048
O=S(=O)(NCCNC/C=C/c1ccc(Br)cc1)c1cccc2cnccc12,fold change (FC),PC-3 [3],1.028
OCCOCCN1CCN(C2=Nc3ccccc3Sc3ccccc32)CC1 [QUETIAPINE],fold change (FC),PC-3 [3],1.013
CCC(C)(C)C(=O)O[C@H]1C[C@@H](C)C=C2C=C[C@H](C)[C@H](CC[C@@H]3C[C@@H](O)CC(=O)O3)[C@H]21 [SIMVASTATIN],fold change (FC),PC-3 [4],0.239
CC1(C)CCC2=C(O1)c1ccccc1C(=O)C2=O [LAPACHONE],fold change (FC),PC-3 [3],0.243
Ic1cccc(CSc2nnc(-c3ccncc3)o2)c1,fold change (FC),PC-3 [2],1.095
O=C(c1ccc(OCCN2CCCCC2)cc1)c1c(-c2ccc(O)cc2)sc2cc(O)ccc12 [RALOXIFENE],fold change (FC),PC-3 [1],1.06
Cc1cc2c(s1)Nc1ccccc1N=C2N1CCN(C)CC1 [OLANZAPINE],fold change (FC),PC-3 [3],1.059
C[C@@H](N)[C@H]1CC[C@H](C(=O)Nc2ccncc2)CC1 [Y-27632],fold change (FC),PC-3 [7],0.958
Cc1ccc(C)c(OCCCC(C)(C)C(=O)O)c1 [GEMFIBROZIL],fold change (FC),PC-3 [4],1.046
same,Activity,[8],Active
CCCCCCCCCCCCC/C=C/[C@H](O)[C@@H](CO)NC(C)=O [ACETYL CERAMIDE],fold change (FC),PC-3 [6],0.787
CS(=O)(=O)c1ccc(C2=C(c3ccccc3)C(=O)OC2)cc1 [ROFECOXIB],fold change (FC),PC-3 [6],1.08
Clc1ccccc1C(c1ccccc1)(c1ccccc1)n1ccnc1 [CLOTRIMAZOLE],fold change (FC),PC-3 [6],0.708
same,Activity,[9],Active
same,Activity,[10],Active
same,Activity,[11],Active
same,Activity,Cofilin-1 (Homo sapiens),Active
C(=C\c1ccccc1)/CN1CCN(C(c2ccccc2)c2ccccc2)CC1,Activity,[9],Active
same,Activity,[10],Active
same,Activity,[11],Active
same,Activity,Cofilin-1 (Homo sapiens),Active
Br.Cc1ccc(C(=O)Cn2c3c(sc2=N)CCCC3)cc1,fold change (FC),PC-3 [12],0.424
C[S+]([O-])c1ccc(-c2nc(-c3ccc(F)cc3)c(-c3ccncc3)[nH]2)cc1 (stereo unspecified) [SB-203580],fold change (FC),PC-3 [7],0.721
CCCCCCCC/C=C\CCCCCCCC(=O)OC[C@@H](O)COP(=O)(O)O [LYSOPHOSPHATIDIC ACID],fold change (FC),PC-3 [5],1.018
NC1=NC(=O)/C(=C2/CCNC(=O)c3[nH]ccc32)N1,fold change (FC),PC-3 [5],1.007
NS(=O)(=O)Cc1noc2ccccc12 [ZONISAMIDE],fold change (FC),PC-3 [5],1.035
CC(C)NCC(O)COc1cccc2ccccc12 (stereo unspecified) [PROPRANOLOL],fold change (FC),PC-3 [3],0.986
COC[C@H]1OC(=O)c2coc3c2[C@@]1(C)C1=C(C3=O)[C@@H]2CCC(=O)[C@@]2(C)C[C@H]1OC(C)=O [WORTMANNIN],fold change (FC),PC-3 [1],0.856
C[C@@H]1C[C@H]2[C@@H]3CCC4=CC(=O)C=C[C@]4(C)[C@@]3(F)[C@@H](O)C[C@]2(C)[C@@]1(O)C(=O)CO [DEXAMETHASONE],fold change (FC),PC-3 [1],1.127
Cc1ccc(NC(=O)c2ccc(CN3CCN(C)CC3)cc2)cc1Nc1nccc(-c2cccnc2)n1 [IMATINIB],fold change (FC),PC-3 [6],0.5
O=c1cc(N2CCOCC2)oc2c(-c3ccccc3)cccc12 [LY-294002],fold change (FC),PC-3 [7],0.33
CC[C@H](C)C(=O)O[C@H]1CCC=C2C=C[C@H](C)[C@H](CC[C@@H]3C[C@@H](O)CC(=O)O3)[C@H]21 [MEVASTATIN],fold change (FC),PC-3 [4],0.243
CC(C)c1c(C(=O)Nc2ccccc2)c(-c2ccccc2)c(-c2ccc(F)cc2)n1CC[C@@H](O)C[C@@H](O)CC(=O)O [ATORVASTATIN],fold change (FC),PC-3 [4],0.264
Cc1ccc(-c2cc(C(F)(F)F)nn2-c2ccc(S(N)(=O)=O)cc2)cc1 [CELECOXIB],fold change (FC),PC-3 [6],0.902
CC1=C(/C=C/C(C)=C/C=C/C(C)=C/C(=O)O)C(C)(C)CCC1 [TRETINOIN],fold change (FC),PC-3 [5],0.969
NS(=O)(=O)c1ccc(-n2nc(C(F)(F)F)cc2-c2ccccc2)cc1,fold change (FC),PC-3 [1],1.023
Fc1ccc([C@@H]2CCNC[C@H]2COc2ccc3c(c2)OCO3)cc1 [PAROXETINE],fold change (FC),PC-3 [6],0.328
Cc1ccc(S(=O)(=O)/C=C/C#N)cc1,fold change (FC),PC-3 [6],0.231
same,Activity,[9],Active
CC[C@H](C)C(=O)O[C@H]1C[C@@H](C)C=C2C=C[C@H](C)[C@H](CC[C@@H]3C[C@@H](O)CC(=O)O3)[C@H]21 [LOVASTATIN],fold change (FC),PC-3 [4],0.25
COc1ccc(C2CNC(=O)C2)cc1OC1CCCC1 (stereo unspecified) [ROLIPRAM],fold change (FC),PC-3 [7],1.065
CN(C)CCOc1ccc(/C(=C(/CCCl)c2ccccc2)c2ccccc2)cc1 [TOREMIFENE],fold change (FC),PC-3 [1],1.001
CC(C)(C)c1ccc(C(O)CCCN2CCC(C(O)(c3ccccc3)c3ccccc3)CC2)cc1 (stereo unspecified) [TERFENADINE],fold change (FC),PC-3 [6],0.212
CC(/C=C/C(=O)NO)=C\[C@@H](C)C(=O)c1ccc(N(C)C)cc1 [TRICHOSTATIN],fold change (FC),PC-3 [5],0.268
O=C1Cc2cc(CCN3CCN(c4nsc5ccccc45)CC3)c(Cl)cc2N1 [ZIPRASIDONE],fold change (FC),PC-3 [3],1.017
O=C1C=C2C(=CCOC2O)O1 (stereo unspecified) [PATULIN],fold change (FC),PC-3 [6],0.23
same,Activity,[9],Active
same,Activity,[10],Active
same,Activity,[11],Active
same,Activity,Cofilin-1 (Homo sapiens),Active
Cc1ccc(NC(=O)c2cccc(N(C)C)c2)cc1NC(=O)c1ccc(O)cc1,fold change (FC),PC-3 [5],0.97
c1ccc([C@H]2CN3CCSC3=N2)cc1 [LEVAMISOLE],fold change (FC),PC-3 [6],1.028
CCCc1nn(C)c2c(=O)[nH]c(-c3cc(S(=O)(=O)N4CCN(C)CC4)ccc3OCC)nc12,fold change (FC),PC-3 [2],1.037
O=c1cc(-c2ccc(O)cc2)oc2cc(O)cc(O)c12 [APIGENIN],fold change (FC),PC-3 [12],0.552
CCCc1nc(C)c2c(=O)nc(-c3cc(S(=O)(=O)N4CCN(CC)CC4)ccc3OCC)[nH]n12,fold change (FC),PC-3 [2],1.058
CC(C)(Oc1ccc(C2CC2(Cl)Cl)cc1)C(=O)O (stereo unspecified) [CIPROFIBRATE],fold change (FC),PC-3 [4],1.047
same,Activity,[8],Active
CC[C@H](C)C(=O)O[C@H]1C[C@H](O)C=C2C=C[C@H](C)[C@H](CC[C@@H](O)C[C@@H](O)CC(=O)O)[C@H]21 [PRAVASTATIN],fold change (FC),PC-3 [4],1.098
CC[C@@]1(O)C(=O)OCc2c1cc1n(c2=O)Cc2cc3ccccc3nc2-1 [CAMPTOTHECIN],fold change (FC),PC-3 [1],0.258
CC(=O)N1CCN(c2ccc(OCC3COC(Cn4ccnc4)(c4ccc(Cl)cc4Cl)O3)cc2)CC1 (stereo unspecified) [KETOCONAZOLE],fold change (FC),PC-3 [4],1.066
C[C@]12CC[C@@H]3c4ccc(O)cc4CC[C@H]3[C@@H]1CC[C@@H]2O [ESTRADIOL],fold change (FC),PC-3 [1],0.997
CC(O)(CS(=O)(=O)c1ccc(F)cc1)C(=O)Nc1ccc(C#N)c(C(F)(F)F)c1 (stereo unspecified) [BICALUTAMIDE],fold change (FC),PC-3 [1],1.005
CN1CCN(C2=Nc3cc(Cl)ccc3Nc3ccccc32)CC1 [CLOZAPINE],fold change (FC),PC-3 [3],0.977
CNc1cc2c(Nc3cccc(Br)c3)ncnc2cn1,fold change (FC),PC-3 [2],1.022
Cn1c(=O)c2c(ncn2C)n(C)c1=O [CAFFEINE],fold change (FC),PC-3 [12],0.952
Cc1nc2n(c(=O)c1CCN1CCC(c3noc4cc(F)ccc34)CC1)CCCC2 [RISPERIDONE],fold change (FC),PC-3 [3],1.071
CC(C)C[C@H](NC(=O)c1ccc(NCc2c[nH]cn2)cc1-c1cccc2ccccc12)C(=O)O,fold change (FC),PC-3 [5],0.966
CC[C@H](C)[C@@H](CO[C@@H](Cc1ccccc1)C(=O)N[C@@H](CCS(C)(=O)=O)C(=O)OC(C)C)NC[C@@H](N)CS,fold change (FC),PC-3 [6],0.719
CCC1(c2ccc(N)cc2)CCC(=O)NC1=O (stereo unspecified) [AMINOGLUTETHIMIDE],fold change (FC),PC-3 [4],0.979
CC(C)NCC(O)c1ccc(O)c(O)c1 (stereo unspecified) [ISOPROTERENOL],fold change (FC),PC-3 [3],0.955
COc1cc2ncc(-c3ccccc3)nc2cc1OC,fold change (FC),PC-3 [5],0.94
CC/C(=C(\c1ccccc1)c1ccc(OCCN(C)C)cc1)c1ccccc1 [TAMOXIFEN],fold change (FC),PC-3 [1],1.041
CC(C)n1c(/C=C/C(O)CC(O)CC(=O)O)c(-c2ccc(F)cc2)c2ccccc21 (stereo unspecified) [FLUVASTATIN],fold change (FC),PC-3 [4],0.255
